Laboratory results: patent US10195216B1, “Antimicrobial activity and oil compositions of Costus speciosus (KOEN)” (King Abdulaziz University, priority 2017, dated 2019)

What was measured:
[1] = test system: C. tropicalis; assay: agar disc diffusion, inhibition zone; assay type: cell-based, Candida tropicalis; conditions: same extract concentrations
Description: (§1) M. gypseum, M. canis, C. albicans and C. tropicalis isolates were obtained from King Faisal Specialist Hospital & Research Centre-Jeddah, Saudi Arabia. They were cultured on sabaroud dextrose agar media (Oxoid CM 41) at 25° C. Antimicrobial activities of essential oils and plant extracts of Indian Costus. About 0.5 g of the testing compound was dissolved in 1.25 ml of a solvent (chloroform, ethanol and methanol) and it was cultured in sabaroud dextrose agar media and blood agar media using the agar disc diffusion method. Each media used were inoculated with 1 ml from a suspension of M. gypseum, M. canis and C. albicans for sabaroud dextrose agar and P. aeruginosa and S. aureus for blood agar. The fungi and yeast were incubated at 25° C. for 8 days, and 48 hours respectively and then tested at 37° C. for 24 hours. After that, the diameter of inhibition zones was measured in millimeters; Baker F J, Breach M R. Medical Microbiological Techniques, Butterworths 1980; Hasenekoglu H. Laboratory techniques for micro fungi. Ataturk University. Erzurum 1990 (both incorporated by reference).

[2] = test system: C. albicans; assay: agar disc diffusion, inhibition zone; assay type: cell-based, Candida albicans; conditions: same extract concentrations
Description: as §1

[3] = test system: M. gypseum; assay: agar disc diffusion, inhibition zone; assay type: cell-based, Microsporum gypseum; conditions: diosgenin at 1.25 m
Description: as §1

| SMILES | melting point [°C] | antimicrobial activity in words [1] | antimicrobial activity in words [2] | antimicrobial activity in words [3] |
| --- | --- | --- | --- | --- |
| CC1CC[C@@]2(OC1)O[C@H]1C[C@H]3[C@@H]4CC5OC56CCCC[C@]6(C)[C@H]4CC[C@]3(C)[C@H]1[C@@H]2C (stereo partly shown) [diosgenin epoxide, 5,6-Epoxyspirostane] | 195 to 200 | – | – | – |
| C[C@@H]1CC[C@@]2(OC1)O[C@H]1C[C@H]3[C@@H]4CC=C5C[C@@H](O)CC[C@]5(C)[C@H]4CC[C@]3(C)[C@H]1[C@@H]2C [Indian Costus diosgenin, (3β,25R)-spirost-5-en-3-ol] | – | not as effective | not as effective | effective |
